The subject of assay [1] is HCT-116. The assay can be described thus: Anti-migratory activity against human HCT116 cells assessed as reduction in cell migration at 0.05 uM incubated for 24 hrs by wound healing assay relative to control. It counts as functional. Also on record: scale not given: the % may be the effect or the level left.
Assay [2] deals with HCT-116. The assay can be described thus: Anticancer activity against human HCT-116 cells assessed as reduction in cell growth by MTT assay. It counts as functional, cell-based.
Assay [3] concerns the target T1, Amine oxidase [flavin-containing] A (Homo sapiens, UniProt P21397).
T1 sequence (P21397 whole entry): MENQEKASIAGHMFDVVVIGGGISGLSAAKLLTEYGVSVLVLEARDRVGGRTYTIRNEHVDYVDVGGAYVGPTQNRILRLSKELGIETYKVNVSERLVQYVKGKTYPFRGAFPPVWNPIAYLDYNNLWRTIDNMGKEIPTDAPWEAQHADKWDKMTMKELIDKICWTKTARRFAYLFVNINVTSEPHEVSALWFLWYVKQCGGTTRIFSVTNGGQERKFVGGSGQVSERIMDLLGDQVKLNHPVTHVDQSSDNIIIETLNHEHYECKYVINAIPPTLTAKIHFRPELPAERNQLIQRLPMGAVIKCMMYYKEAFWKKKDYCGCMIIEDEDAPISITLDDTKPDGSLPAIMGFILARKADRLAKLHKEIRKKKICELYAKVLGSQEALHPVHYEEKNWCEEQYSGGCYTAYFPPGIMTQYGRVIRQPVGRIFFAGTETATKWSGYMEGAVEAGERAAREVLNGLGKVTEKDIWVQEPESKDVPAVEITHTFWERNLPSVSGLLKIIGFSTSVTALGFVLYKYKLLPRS
The assay can be described thus: Binding affinity to human recombinant MAO-A assessed as inhibition constant by MAO-GloTM method.

In assay [4] the test system is LNCaP. The assay can be described thus: Antiproliferative activity against human LNCap cells assessed as reduction in cell viability incubated for 72 hrs by resazurin dye based assay. It counts as functional. A general note: Resazurin is reduced to fluorescent resorufin, in cell work by metabolically active cells.
For assay [5], the system named is HBL-100. The assay can be described thus: Antiproliferative activity against human HBL-100 cells. It counts as functional, cell-based.
The test system of assay [6] is WiDr. The assay can be described thus: Antiproliferative activity against human WiDr cells. It counts as functional, cell-based.
For assay [7], the system named is SW1573. The assay can be described thus: Antiproliferative activity against human SW1573 cells. The assay is classed as functional, cell-based.
The target in assay [8] is T1, Amine oxidase [flavin-containing] A. The assay can be described thus: Inhibition of MAO-A (unknown origin).
Assay [9] has as its system A549. In words: Antiproliferative activity against human A549 cells. The assay is classed as functional, cell-based.
The test system of assay [10] is T47D. The assay can be described thus: Antiproliferative activity against human T47D cells. The assay is classed as functional, cell-based.
In assay [11] the target is T2, Amine oxidase [flavin-containing] B (Homo sapiens, UniProt P27338).
T2 sequence (P27338 whole entry): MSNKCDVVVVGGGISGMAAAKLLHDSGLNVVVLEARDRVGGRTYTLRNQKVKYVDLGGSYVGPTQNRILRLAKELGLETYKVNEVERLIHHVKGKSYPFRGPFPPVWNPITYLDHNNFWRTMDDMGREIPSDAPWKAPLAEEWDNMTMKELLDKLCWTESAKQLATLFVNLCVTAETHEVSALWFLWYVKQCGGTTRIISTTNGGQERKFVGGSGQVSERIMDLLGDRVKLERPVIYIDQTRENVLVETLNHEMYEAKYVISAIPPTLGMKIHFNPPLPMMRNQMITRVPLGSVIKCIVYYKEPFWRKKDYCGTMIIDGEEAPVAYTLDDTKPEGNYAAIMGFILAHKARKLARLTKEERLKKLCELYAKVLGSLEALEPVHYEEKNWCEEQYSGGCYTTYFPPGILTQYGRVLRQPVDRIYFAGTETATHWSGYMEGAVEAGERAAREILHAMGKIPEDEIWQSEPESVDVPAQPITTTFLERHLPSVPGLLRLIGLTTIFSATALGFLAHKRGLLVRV
The assay can be described thus: Inhibition of human MAO-B.

In assay [12] the test system is SK-OV-3. In words: Antiproliferative activity against human SK-OV-3 cells by MTT assay. It counts as functional, cell-based. (In general: Tetrazolium assays rely on reduction of a dye to a coloured formazan, in cell work by metabolically active cells.)
Assay [13] deals with MCF7. In words: Antiproliferative activity against human MCF7 cells by MTT assay. It counts as functional, cell-based.
Assay [14] has as its system HCT-116. The assay can be described thus: Antiproliferative activity against human HCT-116 cells by MTT assay. The assay is classed as functional, cell-based.
The subject of assay [15] is LN-229. In words: Growth inhibition of human LN-229 cells incubated for 48 hrs by trypan blue exclusion assay. It counts as functional.
In assay [16] the target is T2, Amine oxidase [flavin-containing] B. The assay can be described thus: Binding affinity to MAO-B (unknown origin) measured by MAO-GloTM method.

Consider `O=C(Cn1cc(Cn2c(=O)c(Cc3ccccc3)nc3ccccc32)nn1)N/N=C/c1cccnc1`, for which the Activity in [1] is 75%. Also, the IC50 in assay [2] is 18 µM.

On to `O=c1cc(-c2ccccc2)oc2c(Cl)cc(Cl)cc12`, for which the Ki in assay [3] came out at 7.4 nM. Further, in assay [4], the IC50 is roughly 10 µM.

As to `O=C(Cn1cc(Cn2c(=O)c(Cc3ccccc3)nc3ccccc32)nn1)NNC(=S)Nc1ccccc1`, the Activity in [1] was 75%. Further, the IC50 in [2] was found to be 7.85 µM.

Consider `O=[N+]([O-])c1ccc(/C=N/Nc2nc(-c3ccccc3)c[se]2)cc1`, for which the concentration for half-maximal inhibition (IC50) in assay [5] is 24 µM; in assay [6] it was 24 µM; in assay [7] it was 24 µM; in assay [8], 7.2 µM; in [9], 24 µM; in assay [10], 24 µM.

For the compound `C/C(=N\Nc1nc(-c2cccc([N+](=O)[O-])c2)cs1)c1cccs1`, 6.8 nM corresponded to half-maximal inhibition in assay [11] (IC50).

Turning to `CN1CCC2=C(C1)C(c1c[nH]c3ccc(Br)cc13)c1cc(Cl)ccc1O2` (centres undefined), the IC50 in [12], in assay [13] and in assay [14] was 4.83 µM each time.

`COc1ccccc1NCCCCCCC(=O)Nc1ccc(CCc2ccc(NC(=O)CCCCCCNc3ccccc3OC)cc2)cc1` returned a 50% growth inhibitory concentration (GI50) in assay [15] of less than 1000 nM.

As to `C=C(CCCCCCNc1ccccc1OC)Nc1ccc(CCc2ccc(NC(=C)CCCCCCNc3ccccc3OC)cc2)cc1`, the Ki in [16] is less than 1000 nM.

Turning to `C/C(=N\Nc1nc(-c2cccc([N+](=O)[O-])c2)cs1)c1ccsc1`, the half-maximal inhibitory concentration (IC50) in [11] was found to be 2.5 nM.

Broadly, the IC50 is the point on the concentration scale where inhibition reaches its midpoint. In general, Ki refers to a measure of affinity in units of concentration, obtained from inhibition or displacement. The GI50 is the concentration that inhibits growth by half.

These data come from ChEMBL document CHEMBL6103558, “The potential of MAO inhibitors as chemotherapeutics in cancer: A literature survey” (Eur J Med Chem, 2025).
